Measurements reported in US8710065B2, “Tricyclic inhibitors of kinases” (AbbVie Inc., priority 2011, dated 2014).
pKi: −log10 of the molar value.

biological target: T1, GST-tagged-Wee1 kinase (Homo sapiens, UniProt P30291); assay: Wee1 time-resolved fluorescence equilibrium binding assay (displacement of Oregon Green-labeled ATP-competitive kinase probe); settings: read-out: Wee-1 inhibition (Ki)
T1 construct: purchased Carnabio (Carna Biosciences) 05-177
Outline: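 Ki values derive from competitive displacement, under equilibrium, of a fast-reversible ATP-site Oregon Green kinase probe from GST-tagged Wee1, detected by time-resolved fluorescence.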

T1 sequence (P30291 whole entry): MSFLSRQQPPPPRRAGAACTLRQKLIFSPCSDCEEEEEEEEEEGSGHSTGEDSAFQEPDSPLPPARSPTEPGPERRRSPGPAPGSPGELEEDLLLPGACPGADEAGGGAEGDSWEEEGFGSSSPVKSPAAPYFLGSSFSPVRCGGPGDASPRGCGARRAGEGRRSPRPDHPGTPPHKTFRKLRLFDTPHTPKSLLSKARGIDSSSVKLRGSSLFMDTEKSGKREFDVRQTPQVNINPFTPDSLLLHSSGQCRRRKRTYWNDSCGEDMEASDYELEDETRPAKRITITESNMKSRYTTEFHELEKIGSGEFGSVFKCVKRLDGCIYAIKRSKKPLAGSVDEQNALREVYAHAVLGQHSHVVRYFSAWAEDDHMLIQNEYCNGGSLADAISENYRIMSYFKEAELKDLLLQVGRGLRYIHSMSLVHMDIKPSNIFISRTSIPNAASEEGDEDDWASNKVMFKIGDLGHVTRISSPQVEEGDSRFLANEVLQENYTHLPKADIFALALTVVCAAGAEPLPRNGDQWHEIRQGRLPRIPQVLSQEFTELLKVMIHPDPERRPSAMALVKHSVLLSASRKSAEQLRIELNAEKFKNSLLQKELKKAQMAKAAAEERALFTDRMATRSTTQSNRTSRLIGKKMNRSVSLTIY

pKi | Compound
> 8.00 | COc1cc(Nc2ncc3c(=O)n(-c4c(Cl)cccc4Cl)c4nccn4c3n2)ccc1N1CCN(C)CC1 [Example 148, 6-(2,6-dichlorophenyl)-2-{[3-methoxy-4-(4-methylpiperazin-1-yl)phenyl]amino}imidazo[1,2-a]pyrimido[5,4-e]pyrimidin-5(6H)-one]
> 8.00 | CCN(CC)CCCOc1ccc(Nc2ncc3c(=O)n(-c4c(Cl)cccc4Cl)c4nccn4c3n2)cc1F [Example 149, 6-(2,6-dichlorophenyl)-2-({4-[3-(diethylamino)propoxy]-3-fluorophenyl}amino)imidazo[1,2-a]pyrimido[5,4-e]pyrimidin-5(6H)-one]
> 8.00 | CN1CCc2cc(Nc3ncc4c(=O)n(-c5c(Cl)cccc5Cl)c5nccn5c4n3)ccc2C1(C)C [Example 150, 6-(2,6-dichlorophenyl)-2-[(1,1,2-trimethyl-1,2,3,4-tetrahydroisoquinolin-6-yl)amino]imidazo[1,2-a]pyrimido[5,4-e]pyrimidin-5(6H)-one]
> 8.00 | O=c1c2cnc(Nc3ccc(N4C[C@@H]5C[C@H]4CN5)cc3)nc2n2ccnc2n1-c1c(Cl)cccc1Cl [Example 151, 2-({4-[(1S,45)-2,5-diazabicyclo[2.2.1]hept-2-yl]phenyl}amino)-6-(2,6-dichlorophenyl)imidazo[1,2-a]pyrimido[5,4-e]pyrimidin-5(6H)-one]
> 8.00 | CN1Cc2cc(Nc3ncc4c(=O)n(-c5c(Cl)cccc5Cl)c5nccn5c4n3)ccc2C(C)(C)C1 [Example 152, 6-(2,6-dichlorophenyl)-2-[(2,4,4-trimethyl-1,2,3,4-tetrahydroisoquinolin-7-yl)amino]imidazo[1,2-a]pyrimido[5,4-e]pyrimidin-5(6H)-one]
> 8.00 | O=c1c2cnc(Nc3ccc(N4CCC(F)(F)CC4)cc3)nc2n2ccnc2n1-c1c(Cl)cccc1Cl [Example 153, 6-(2,6-dichlorophenyl)-2-{[4-(4,4-difluoropiperidin-1-yl)phenyl]amino}imidazo[1,2-a]pyrimido[5,4-e]pyrimidin-5(6H)-one]
> 8.00 | O=c1c2cnc(Nc3ccc(N4CCCC(F)(F)C4)cc3)nc2n2ccnc2n1-c1c(Cl)cccc1Cl [Example 154, 6-(2,6-dichlorophenyl)-2-{[4-(3,3-difluoropiperidin-1-yl)phenyl]amino}imidazo[1,2-a]pyrimido[5,4-e]pyrimidin-5(6H)-one]
> 8.00 | CC(C)N1CCN(c2ccc(Nc3ncc4c(=O)n(-c5c(Cl)cccc5Cl)c5nccn5c4n3)cc2F)CC1 [Example 155, 6-(2,6-dichlorophenyl)-2-({3-fluoro-4-[4-(propan-2-yl)piperazin-1-yl]phenyl}amino)imidazo[1,2-a]pyrimido[5,4-e]pyrimidin-5(6H)-one]
> 8.00 | O=c1c2cnc(Nc3ccc(N4CCNCC4)c(C(F)(F)F)c3)nc2n2ccnc2n1-c1c(Cl)cccc1Cl [Example 156, 6-(2,6-dichlorophenyl)-2-{[4-(piperazin-1-yl)-3-(trifluoromethyl)phenyl]amino}imidazo[1,2-a]pyrimido[5,4-e]pyrimidin-5(6H)-one]
> 8.00 | CC(C)c1cc(Nc2ncc3c(=O)n(-c4ccccc4Cl)c4nccn4c3n2)ccc1N1CCN(C)CC1 [Example 157, 6-(2-chlorophenyl)-2-{[4-(4-methylpiperazin-1-yl)-3-(propan-2-yl)phenyl]amino}imidazo[1,2-a]pyrimido[5,4-e]pyrimidin-5(6H)-one]
> 8.00 | CC(=O)N1CCN(c2ccc(Nc3ncc4c(=O)n(-c5c(F)cccc5Cl)c5nccn5c4n3)cc2)CC1 [Example 158, 2-{[4-(4-acetylpiperazin-1-yl)phenyl]amino}-6-(2-chloro-6-fluorophenyl)imidazo[1,2-a]pyrimido[5,4-e]pyrimidin-5(6H)-one]
7.00 to 8.00 | CC1(C)CNCc2cc(Nc3ncc4c(=O)n(-c5c(F)cccc5Cl)c5nccn5c4n3)ccc21 [Example 159, 6-(2-chloro-6-fluorophenyl)-2-[(4,4-dimethyl-1,2,3,4-tetrahydroisoquinolin-7-yl)amino]imidazo[1,2-a]pyrimido[5,4-e]pyrimidin-5(6H)-one]
> 8.00 | O=c1c2cnc(Nc3ccc4c(c3)CNCC43CC3)nc2n2ccnc2n1-c1c(Cl)cc(F)cc1Cl [Example 160, 6-(2,6-dichloro-4-fluorophenyl)-2-(2′,3′-dihydro-1′H-spiro[cyclopropane-1,4′-isoquinolin]-7′-ylamino)imidazo[1,2-a]pyrimido[5,4-e]pyrimidin-5(6H)-one]
> 8.00 | CCN1Cc2cc(Nc3ncc4c(=O)n(-c5ccccc5Cl)c5nccn5c4n3)ccc2C(C)(C)C1 [Example 161, 6-(2-chlorophenyl)-2-[(2-ethyl-4,4-dimethyl-1,2,3,4-tetrahydroisoquinolin-7-yl)amino]imidazo[1,2-a]pyrimido[5,4-e]pyrimidin-5(6H)-one]
7.00 to 8.00 | CC1(C)CN(CC(F)(F)F)Cc2cc(Nc3ncc4c(=O)n(-c5ccccc5Cl)c5nccn5c4n3)ccc21 [Example 162, 6-(2-chlorophenyl)-2-{[4,4-dimethyl-2-(2,2,2-trifluoroethyl)-1,2,3,4-tetrahydroisoquinolin-7-yl]amino}imidazo[1,2-a]pyrimido[5,4-e]pyrimidin-5(6H)-one]
> 8.00 | CC1(C)CN(Cc2ccc(-n3ccnc3)cc2)Cc2cc(Nc3ncc4c(=O)n(-c5ccccc5Cl)c5nccn5c4n3)ccc21 [Example 163, 6-(2-chlorophenyl)-2-({2-[4-(1H-imidazol-1-yl)benzyl]-4,4-dimethyl-1,2,3,4-tetrahydroisoquinolin-7-yl}amino)imidazo[1,2-a]pyrimido[5,4-e]pyrimidin-5(6H)-one]
> 8.00 | CC1(C)CN(CC2CCN(Cc3ccccc3)CC2)Cc2cc(Nc3ncc4c(=O)n(-c5ccccc5Cl)c5nccn5c4n3)ccc21 [Example 164, 2-({2-[(1-benzylpiperidin-4-yl)methyl]-4,4-dimethyl-1,2,3,4-tetrahydroisoquinolin-7-yl}amino)-6-(2-chlorophenyl)imidazo[1,2-a]pyrimido[5,4-e]pyrimidin-5(6H)-one]
> 8.00 | CC(=O)N1Cc2cc(Nc3ncc4c(=O)n(-c5c(Cl)cc(F)cc5Cl)c5nccn5c4n3)ccc2C2(CC2)C1 [Example 165, 2-[(2′-acetyl-2′,3′-dihydro-1′H-spiro[cyclopropane-1,4′-isoquinolin]-7′-yl)amino]-6-(2,6-dichloro-4-fluorophenyl)imidazo[1,2-a]pyrimido[5,4-e]pyrimidin-5(6H)-one]
> 8.00 | O=c1c2cnc(Nc3ccc(N4CCC(O)CC4)cc3)nc2n2ccnc2n1-c1c(Cl)cccc1Cl [Example 166, 6-(2,6-dichlorophenyl)-2-{[4-(4-hydroxypiperidin-1-yl)phenyl]amino}imidazo[1,2-a]pyrimido[5,4-e]pyrimidin-5(6H)-one]
7.00 to 8.00 | O=c1c2cnc(Nc3ccc(C4CCCCC4)cc3)nc2n2ccnc2n1-c1c(Cl)cccc1Cl [Example 167, 2-[(4-cyclohexylphenyl)amino]-6-(2,6-dichlorophenyl)imidazo[1,2-a]pyrimido[5,4-e]pyrimidin-5(6H)-one]
> 8.00 | O=c1c2cnc(Nc3ccc(C4CCNC4)cc3)nc2n2ccnc2n1-c1c(Cl)cccc1Cl (centres unmarked) [Example 168, 6-(2,6-dichlorophenyl)-2-{[4-(pyrrolidin-3-yl)phenyl]amino}imidazo[1,2-a]pyrimido[5,4-e]pyrimidin-5(6H)-one]
> 8.00 | O=c1c2cnc(Nc3ccc(N4CCOCC4)cc3)nc2n2ccnc2n1-c1c(Cl)cccc1Cl [Example 169, 6-(2,6-dichlorophenyl)-2-{[4-(morpholin-4-yl)phenyl]amino}imidazo[1,2-a]pyrimido[5,4-e]pyrimidin-5(6H)-one]
7.00 to 8.00 | CC1(C)CN(CC(F)(F)F)Cc2cc(Nc3ncc4c(=O)n(-c5c(Cl)cccc5Cl)c5nccn5c4n3)ccc21 [Example 170, 6-(2,6-dichlorophenyl)-2-{[4,4-dimethyl-2-(2,2,2-trifluoroethyl)-1,2,3,4-tetrahydroisoquinolin-7-yl]amino}imidazo[1,2-a]pyrimido[5,4-e]pyrimidin-5(6H)-one]
> 8.00 | O=C(C1CC1)N1Cc2cc(Nc3ncc4c(=O)n(-c5c(Cl)cc(F)cc5Cl)c5nccn5c4n3)ccc2C2(CC2)C1 [Example 171, 2-{[2′-(cyclopropylcarbonyl)-2′,3′-dihydro-1′H-spiro[cyclopropane-1,4′-isoquinolin]-7′-yl]amino}-6-(2,6-dichloro-4-fluorophenyl)imidazo[1,2-a]pyrimido[5,4-e]pyrimidin-5(6H)-one]
> 8.00 | CS(=O)(=O)N1Cc2cc(Nc3ncc4c(=O)n(-c5c(Cl)cc(F)cc5Cl)c5nccn5c4n3)ccc2C2(CC2)C1 [Example 172, 6-(2,6-dichloro-4-fluorophenyl)-2-{[2′-(methylsulfonyl)-2′,3′-dihydro-1′H-spiro[cyclopropane-1,4′-isoquinolin]-7′-yl]amino}imidazo[1,2-a]pyrimido[5,4-e]pyrimidin-5(6H)-one]
> 8.00 | O=c1c2cnc(Nc3ccc(N4CCNCC4)nc3)nc2n2ccnc2n1-c1c(Cl)cc(F)cc1Cl [Example 173, 6-(2,6-dichloro-4-fluorophenyl)-2-{[6-(piperazin-1-yl)pyridin-3-yl]amino}imidazo[1,2-a]pyrimido[5,4-e]pyrimidin-5(6H)-one]
> 8.00 | O=C1CNCCN1c1ccc(Nc2ncc3c(=O)n(-c4c(Cl)cccc4Cl)c4nccn4c3n2)cc1 [Example 174, 6-(2,6-dichlorophenyl)-2-{[4-(2-oxopiperazin-1-yl)phenyl]amino}imidazo[1,2-a]pyrimido[5,4-e]pyrimidin-5(6H)-one]
> 8.00 | O=c1c2cnc(Nc3ccc(N4C[C@H]5C[C@@H]4CN5)cc3)nc2n2ccnc2n1-c1c(Cl)cccc1Cl [Example 175, 2-({4-[(1R,4R)-2,5-diazabicyclo[2.2.1]hept-2-yl]phenyl}amino)-6-(2,6-dichlorophenyl)imidazo[1,2-a]pyrimido[5,4-e]pyrimidin-5(6H)-one]
> 8.00 | CC(C)c1cc(Nc2ncc3c(=O)n(-c4c(Cl)cccc4Cl)c4nccn4c3n2)ccc1N1CCN(C)CC1 [Example 176, 6-(2,6-dichlorophenyl)-2-{[4-(4-methylpiperazin-1-yl)-3-(propan-2-yl)phenyl]amino}imidazo[1,2-a]pyrimido[5,4-e]pyrimidin-5(6H)-one]
